Experimental data taken from patent publication US4892883A, “Pharmaceutical compositions containing bilobalide for the treatment of neuropathies Ai” (Willman - Schwabe GmbH & Co., priority 1973, dated 1990).
Read-outs that look alike come from different tables or passages of the source.

How the values were obtained:
[1] = test system: spontaneous climbing behaviour (SCB) of mice; assay: Spontaneous climbing behaviour (SCB) of mice (Table X); assay type: in vivo, mouse (NMRI); conditions: for influence of antagonists on the SCB activity of extract and Physostigmine: Scopolamine, Sulpiride, Naloxone, other receptor antagonists; for Mean climbing score, animal: M ± SD
Method: In one of these experiments the influence of the extract on the spontaneous climbing behaviour (SCB) was examined according to the method described by Marcais et al. (Psychopharmacology; 56, 233-234, 1978).
*The substances were applied 20 min before the observation period (30
min). In the combination experiments, the second substance was
administered 5 min before the first substance.

[2] = test system: Oxotremorine induced hypothermia, tremor and salivation in mice; assay: Oxotremorine induced hypothermia, tremor and salivation (Table XIII); assay type: in vivo, mouse (NMRI); conditions: for Hypothermia: M ± SD
Method: (§1) The analgesia tests were carried out according to the hotplate test (J. Pharm. Pharmacol., 9, 381, 1957) and the tests for hypothermia, tremor and salivation according to the method described by Gouret (J. Pharmacol., 4, 105-128, 1973). Subsequently, the mice were treated with extract and Physostigmine etc., in a manner similar to the method described above in connection with the hypoxia tests.

[3] = test system: mice; assay: Influence on anti-hypoxic effects of Pilocarpine and Physostigmine (Table XI); assay type: in vivo, mouse (NMRI); conditions: for Survival time, treated animals: M ± SEM
Method: The protective actions of the extract against hypoxia were compared in a Hypobare-Hypoxia model, according to a method described by Nakanishi et al (Life Sci 13, 467-478, 1973). 4 mice (2 control animals and 2 treated animals) were put into a vacuum desiccator (3.51). A negative pressure of 170 mmHg was generated therein within 20 sec. The survival times of the animals under these hypoxia conditions were determined. The test substance was administered intraperitoneally in an aqueous solution 30 min before the experiment began. The control animals were only treated with solvents. The maximum observation period of the survival times was 8 min. The survival time of the treated animals tolerating the hypoxia condition longer than this period was assumed to be 480 sec. None of the control animals survived longer than 180 sec. The percentage of the treated animals surviving longer than 3 min was defined as %-effect of the extract.
The anti-hypoxic effects of the cholinomimetics Pilocarpine and the acetylcholine-esterase inhibitor Physostigmine entering the brain are known. […] The method applied for these experiments was similar to the above-described Hypobare-Hypoxia model. Groups of mice were treated orally with an aqueous suspension of the extract (or with water). Pilocarpine and Physostigmine, respectively (or water) were administered 30 min later. The hypoxia tests were carried out 30 min after the second application.

[4] = test system: mice; assay: Analgetic effect, hotplate test (Table XII); assay type: in vivo, mouse (NMRI); conditions: for Latent period: M ± SD
Method: as §1
A The percentage of animals having a latent period of more than 60 sec.

[5] = test system: brain and nerves; conditions: brain of many species, including humans; cited from earlier work
[6] = test system: brain and nerves; conditions: brain of various species; cited from earlier work
[7] = Test 1, Physostigmine 0.1 mg/kg s.c.
[8] = Test 1, Physostigmine 0.2 mg/kg s.c.

## C=CCN1CC[C@]23c4c5ccc(O)c4O[C@H]2C(=O)CC[C@@]3(O)[C@H]1C5 [Naloxone]
[1]
  influence of antagonists on the SCB activity of extract and Physostigmine: do not influence the effects of Physostigmine and the extract

## O=C1CCCN1CC#CCN1CCCC1 [Oxotremorine]
[2]; Oxotremorine 0.1 mg/kg i.p.
  Salivation: 60%
  Tremor: 0%
  Hypothermia: 2.5 ± 0.82 °C
[2]; Oxotremorine 0.2 mg/kg i.p.
  Salivation: 100%
  Tremor: 50%
  Hypothermia: 5.23 ± 1.19 °C

## CNC(=O)Oc1ccc2c(c1)[C@]1(C)CCN(C)[C@@H]1N2C [Physostigmine]
[3]; Physostigmine 0.2 mg/kg i.p.
  % effect: 20%
[3]; Physostigmine 0.2 mg/kg i.p., control 80.6 ± 9.64
  Survival time, treated animals: 190.63 ± 26.2 s
[4]; [7]
  % effect (animals with latent period of more than 60 sec): 10%
  Latent period: 31.1 ± 13.9 s
[4]; [8]
  % effect (animals with latent period of more than 60 sec): 50%
  Latent period: 44.1 ± 17.69 s
[1]
  influence of antagonists on the SCB activity of extract and Physostigmine: inhibited only by specific anti-cholinergic agents entering the brain, such as Scopolamine and not influenced by antagonists to other receptors
[1]; Test II, 0.10 mg/kg s.c.
  Mean climbing score, animal: 1.39 ± 0.92
[1]; Test III, 0.025 mg/kg s.c.
  Mean climbing score, animal: 5.75 ± 1.28
[1]; Test III, 0.05 mg/kg s.c.
  Mean climbing score, animal: 3.88 ± 2.23
[1]; words
  influence on SCB of mice: reduces the SCB of mice

## CC[C@@H]1C(=O)OC[C@@H]1Cc1cncn1C [Pilocarpine]
[3]; Pilocarpine 2 mg/kg i.p.
  % effect: 30%
[3]; Pilocarpine 2 mg/kg i.p., control 86.7 ± 6.82
  Survival time, treated animals: 178.6 ± 24.8 s
[4]; Test 2, Pilocarpine 5 mg/kg s.c.
  % effect (animals with latent period of more than 60 sec): 10%
[4]; Test 2, Pilocarpine 5 mg/kg s.c., control 15.74 ± 3.47
  Latent period: 24.9 ± 13.32 s

## CN1[C@@H]2C[C@@H](OC(=O)[C@H](CO)c3ccccc3)C[C@H]1[C@@H]1O[C@@H]12 [Scopolamine]
[1]; Test II, 0.25 mg/kg i.p.
  Mean climbing score, animal: 6.63 ± 1.42

## CCN1CCCC1CNC(=O)c1cc(S(N)(=O)=O)ccc1OC (centres unmarked) [Sulpiride]
[1]
  influence of antagonists on the SCB activity of extract and Physostigmine: do not influence the effects of Physostigmine and the extract

## Oc1c(Cl)cc(Cl)c(Cl)c1Cc1c(O)c(Cl)cc(Cl)c1Cl [hexachlorophene, 2,2'-methylene-bis(3,4,6-trichlorophenol)]
[5]
  neurotoxic effect: produces oedematous damage in the brain of many species, including humans

## C[CH2][Sn]([Cl])([CH2]C)[CH2]C [triethyltin chloride]
[6]
  neurotoxic effect: brings about an increase in the water content in the brain of various species and induces specific myelopathy in the nerves
